Data set [1] can be described thus: Overall safety and tolerability. Conditions: for Safety and tolerability (overall): SAD, MAD and supratherapeutic cohorts, healthy participants. It is filed as in vivo, human.
The conditions of data set [2]: 500 mg single dose, fasted, no ritonavir; individual values (N2=2).
For data set [3], the system named is SARS‐CoV‐2 viral replication. As to conditions: in vitro EC90 adjusted for plasma protein binding; cited from earlier work.
The test system of data set [4] is cytochrome P450 3A4 (CYP3A4). Conditions: cited from earlier work.
Data set [5] relates to SARS‐CoV‐2. Conditions: oral administration; cited from earlier work.
Data set [6] in a line: clinical. As to conditions: human, in vivo.

The Tmax is the time at which the peak concentration occurs. A word on the Cmax: it is the highest concentration seen after dosing.

With `CC(C)(C)[C@H](NC(=O)C(F)(F)F)C(=O)N1C[C@H]2[C@@H]([C@H]1C(=O)N[C@H](C#N)C[C@@H]1CCNC1=O)C2(C)C` [Nirmatrelvir], the “Safety and tolerability (overall)” value was “safe and well‐tolerated” in data set [1]; “no safety concerns were identified” in data set [1] (listed as nirmatrelvir). Further, in data set [1] (with or without ritonavir), the “Changes in laboratory values (≥ grade 2), vital sign or ECG measurements” value was “No clinically meaningful changes”. Moreover, the AUCinf in data set [2] is reported as 5,450 ng hour/mL. The “t ½” value in data set [2] turned out to be 25.6 h. Also, the “total plasma EC90 (90% inhibition of SARS‐CoV‐2 viral replication)” value in data set [3] was 0.292 µg/mL. For the same compound, in data set [4], the Metabolism result is given as “primarily metabolized by cytochrome P450 3A4 (CYP3A4)”. Also, in data set [5], the “Effect on pulmonary viral titers” value was “dose‐dependent reduction of pulmonary viral titers”. For the same compound, the results for the Tmax in data set [6], in data set [6] (150 mg) and in data set [6] (500 mg) were 1 h, 0.634 h and 1 h, respectively. Further, the Cmax in data set [6] (150 mg) came out at 668 ng/mL; in data set [6] (500 mg), 674 ng/mL.
